Measurements published in article PMC7504721, “Targeting the Initiator Protease of the Classical Pathway of Complement Using Fragment-Based Drug Discovery” (Molecules, 2020).

Tested on: alternative pathway
Assay: Alternative pathway-specific ELISA (LPS, 20% serum, C3b detection)
Type: biochemical, human
Conditions: single dose 500 µM, triplicate
Description: Figure 5 Selectivity and mechanistic analysis of CMP-1611 and CMP-1696. (A) Chemical structure of CMP-1611. (B) Chemical structure of CMP-1696. (C) Dose-dependent inhibition by CMP-1611 and CMP-1696 in a classical pathway-specific ELISA. Data were fit with GraphPad Prism using non-linear regression with a log(inhibitor) vs. response model. […] (D) Complement pathway selectivity of CMP-1611 and CMP-1696. Compounds were assessed for their ability to inhibit activation of complement via the lectin and alternative pathways using single doses of 500 µM compound in triplicate. To ensure only lectin pathway activation, 2% (v/v) C1q-depleted serum (CompTech) was used and mannan was used as the activator. To match serum sources and amounts for this assay, the classical pathway assays were repeated here using serum from CompTech at 2% (v/v) final concentration. Alternative pathway activation assays were performed using 20% (v/v) serum (CompTech), alternative pathway buffers, and C3b detection (see Methods and Materials for details). […]
To carry out classical pathway ELISA-based inhibition assays, IgM was dissolved in coating buffer (100 mM Na2CO3/NaHCO3, pH 9.6) to a final concentration of 3 µg/mL and was dispensed into 96-well plates at 100 µL per well. […] The reaction was stopped with 50 µL of 0.16 M sulfuric acid, and the plate was read at 450 nm using an EnSight multimode plate reader (Perkin-Elmer). […]

For `CN(C)c1cc(N2CCCC(N)C2)ncn1` (stereo not shown) [CMP-1611], the “inhibition of alternative pathway activation” value was “no effect”.
